In patent publication US20060069132A1, “Azolecarboxamide herbicides” (priority 2004, published 2006):

Assays:
[1] = system: wheat; test: Test B postemergence herbicide test; type: in vivo, Triticum aestivum; conditions: Postemergence, 500 g ai/ha; visual rating after 13 to 15 days, scale 0 (no effect) to 100 (complete control)
Description: (§1) At the same time, plants selected from these crop and weed species and also blackgrass (Alopecurus myosuroides Huds.), wheat (Triticum aestivum L.) and wild oat (Avena fatua L.) were treated with postemergence applications of test chemicals formulated in the same manner. Plants ranged in height from 2 to 18 cm (1- to 4-leaf stage) for postemergence treatments. Plant species in the flooded paddy test consisted of rice (Oryza sativa L.), small flower umbrella sedge (Cyperus difformis L.), ducksalad (Heteranthera limosa (Sw.) Willd.) and barnyardgrass (Echinochloa crus-galli (L.) Beauv.) grown to the 2-leaf stage for testing. Treated plants and controls were maintained in a greenhouse for 13 to 15 days, after which time all species were compared to controls and visually evaluated. Plant response ratings, summarized in Table B, are based on a scale of 0 to 100 where 0 is no effect and 100 is complete control. A dash (-) response means no test result.

[2] = system: morningglory; test: Test B pre-/postemergence herbicide test; type: in vivo, Ipomoea coccinea; conditions: 500 g ai/ha
Source text: (§2) Seeds selected from barnyardgrass (Echinochloa crus-galli (L.) Beauv.), Surinam grass (Urochloa decumbens (Staph) R. D. Webster, previously named Brachiaria decumbens Stapf), cocklebur (Xanthium strumarium L.), corn (Zea mays L.), large crabgrass (Digitaria sanguinalis (L.) Scop.), giant foxtail (Setaria faberi Herim.), lambsquarters (Chenopodium album L.), morningglory (Ipomoea coccinea L.), pigweed (Amaranthus retroflexus L.), rice (Oryza sativa L.) and velvetleaf (Abutilon theophrasti Medik.) were planted and treated preemergence with test chemicals formulated in a non-phytotoxic solvent mixture which included a surfactant.
as §1

[3] = system: pigweed; test: Test B pre-/postemergence herbicide test; type: in vivo, Amaranthus retroflexus; conditions: 500 g ai/ha
Source text: as §2, §1

[4] = system: lambsquarters; test: Test B pre-/postemergence herbicide test; type: in vivo, Chenopodium album; conditions: 500 g ai/ha
Source text: as §2, §1

[5] = system: ducksalad; test: Test B flooded paddy test; type: in vivo, Heteranthera limosa; conditions: 1000 g ai/ha, visual rating, scale 0 to 100 (0 no effect, 100 complete control), 13 to 15 days
Description: as §1

[6] = system: giant foxtail; test: Test B pre-/postemergence herbicide test; type: in vivo, Setaria faberi; conditions: 500 g ai/ha
Source text: as §2, §1

[7] = system: blackgrass; test: Test B postemergence herbicide test; type: in vivo, Alopecurus myosuroides; conditions: Postemergence, 500 g ai/ha; visual rating after 13 to 15 days, scale 0 (no effect) to 100 (complete control)
Description: as §1

[8] = system: barnyardgrass; test: Test B flooded paddy test; type: in vivo, Echinochloa crus-galli; conditions: 1000 g ai/ha, visual rating, scale 0 to 100 (0 no effect, 100 complete control), 13 to 15 days
Description: as §1

[9] = system: velvetleaf; test: Test B pre-/postemergence herbicide test; type: in vivo, Abutilon theophrasti; conditions: 500 g ai/ha
Source text: as §2, §1

[10] = system: wild oat; test: Test B postemergence herbicide test; type: in vivo, Avena fatua; conditions: Postemergence, 500 g ai/ha; visual rating after 13 to 15 days, scale 0 (no effect) to 100 (complete control)
Description: as §1

[11] = system: Surinam grass; test: Test B pre-/postemergence herbicide test; type: in vivo, Urochloa decumbens; conditions: 500 g ai/ha
Source text: as §2, §1

[12] = system: small flower umbrella sedge; test: Test B flooded paddy test; type: in vivo, Cyperus difformis; conditions: 1000 g ai/ha, visual rating, scale 0 to 100 (0 no effect, 100 complete control), 13 to 15 days
Description: as §1

[13] = system: large crabgrass; test: Test B pre-/postemergence herbicide test; type: in vivo, Digitaria sanguinalis; conditions: 500 g ai/ha
Source text: as §2, §1

[14] = system: rice; test: Test B flooded paddy test; type: in vivo, Oryza sativa; conditions: 1000 g ai/ha, visual rating, scale 0 to 100 (0 no effect, 100 complete control), 13 to 15 days
Description: as §1

[15] = system: cocklebur; test: Test B pre-/postemergence herbicide test; type: in vivo, Xanthium strumarium; conditions: 500 g ai/ha
Source text: as §2, §1

[16] = system: corn; test: Test B pre-/postemergence herbicide test; type: in vivo, Zea mays; conditions: 500 g ai/ha
Source text: as §2, §1

[17] = system: barnyardgrass; test: Test B pre-/postemergence herbicide test; type: in vivo, Echinochloa crus-galli; conditions: 500 g ai/ha
Source text: as §2, §1

[18] = system: large crabgrass; test: Test A pre-/postemergence herbicide test; type: in vivo, Digitaria sanguinalis
Source text: (§3) Seeds of plant species selected from barnyardgrass (Echinochloa crus-galli (L.) Beauv.), downy bromegrass (Bromus tectorum L.), large crabgrass (Digitaria sanguinalis (L.) Scop.), giant foxtail (Setaria faberi Herrm.), morningglory (Ipomoea spp.), redroot pigweed (Amaranthus retroflexus L.) and velvetleaf (Abutilon theophrasti Medik.) were planted into a sandy loam soil and treated preemergence with a directed soil spray using test chemicals formulated in a non-phytotoxic solvent mixture which included a surfactant. At the same time plants selected from these species were also treated postemergence by spraying to runoff with test chemicals formulated.
(§4) Plants ranged in height from 2 to 10 cm and were in the one- to two-leaf stage for the postemergence treatment. Treated plants and untreated controls were maintained in a greenhouse for approximately ten days, after which time all treated plants were compared to untreated controls and visually evaluated for injury. Plant response ratings, summarized in Table A, are based on a 0 to 100 scale where 0 is no effect and 100 is complete control. A dash (-) response means no test results.

[19] = system: giant foxtail; test: Test A pre-/postemergence herbicide test; type: in vivo, Setaria faberi
Source text: as §3, §4

[20] = system: barnyardgrass; test: Test A pre-/postemergence herbicide test; type: in vivo, Echinochloa crus-galli
Source text: as §3, §4

[21] = system: redroot pigweed; test: Test A pre-/postemergence herbicide test; type: in vivo, Amaranthus retroflexus
Source text: as §3, §4

[22] = system: morningglory; test: Test A pre-/postemergence herbicide test; type: in vivo, Ipomoea spp.
Source text: as §3, §4

[23] = system: velvetleaf; test: Test A pre-/postemergence herbicide test; type: in vivo, Abutilon theophrasti
Source text: as §3, §4

[24] = Postemergence, visual rating after 13 to 15 days, scale 0 (no effect) to 100 (complete control)
[25] = Postemergence, 500 g ai/ha, 0 to 100 scale, 0 no effect, 100 complete control
[26] = Postemergence, 2000 g ai/ha, 0 to 100 scale, 0 no effect, 100 complete control
[27] = Preemergence, 500 g ai/ha, visual rating, 0 to 100 scale (0 no effect, 100 complete control)
[28] = Preemergence, 2000 g ai/ha, visual rating, 0 to 100 scale (0 no effect, 100 complete control)
[29] = preemergence, 500 g ai/ha, visual injury, 0 to 100 scale (0 no effect, 100 complete control)
[30] = Postemergence, 125 g ai/ha, 0 to 100 scale, 0 no effect, 100 complete control
[31] = preemergence, 125 g ai/ha, visual injury, 0 to 100 scale (0 no effect, 100 complete control)

SMILES: CCNC(=O)c1cccc(NC(=O)c2cc(C(C)(C)C)nn2CC(C)C)c1 [Compound 42]
- Plant response rating, Wheat [1]: 20
- Plant response rating, Morningglory [2, 24]: 50
- Morningglory plant response rating ([2]; Preemergence, scale 0 to 100): 10
- Plant response rating, Pigweed [3, 24]: 70
- Pigweed plant response rating ([3]; Preemergence, scale 0 to 100): 40
- Plant response rating, Lambsquarters [4, 24]: 70
- Lambsquarters plant response rating ([4]; Preemergence, scale 0 to 100): 80
- Ducksalad plant response rating [5]: 50
- Plant response rating, Foxtail, Giant [6, 24]: 10
- Foxtail, Giant plant response rating ([6]; Preemergence, scale 0 to 100): 10
- Plant response rating, Blackgrass [7]: 10
- Barnyardgrass plant response rating [8]: 0
- Plant response rating, Velvetleaf [9, 24]: 60
- Velvetleaf plant response rating ([9]; Preemergence, scale 0 to 100): 10
- Plant response rating, Oat, Wild [10]: 20
- Plant response rating, Surinam Grass [11, 24]: 20
- Surinam Grass plant response rating ([11]; Preemergence, scale 0 to 100): 20
- Sedge, Umbrella plant response rating [12]: 50
- Plant response rating, Crabgrass, Large [13, 24]: 70
- Crabgrass, Large plant response rating ([13]; Preemergence, scale 0 to 100): 70
- Rice plant response rating [14]: 0
- Plant response rating, Cocklebur [15, 24]: 20
- Cocklebur plant response rating ([15]; Preemergence, scale 0 to 100): 0
- Plant response rating, Corn [16, 24]: 20
- Corn plant response rating ([16]; Preemergence, scale 0 to 100): 0
- Plant response rating, Barnyardgrass [17, 24]: 20
- Barnyardgrass plant response rating ([17]; Preemergence, scale 0 to 100): 30

SMILES: Cn1nc(C(C)(C)C)cc1C(=O)Nc1cccc2c1CCCC2=NO [Compound 116]
- Crabgrass, Large plant response rating [18, 25]: 0
- Plant response rating, Crabgrass, Large [18, 26]: 10
- Crabgrass, Large plant response rating [18, 27]: 45
- Crabgrass, Large plant response rating [18, 28]: 80
- Foxtail, Giant plant response rating [19, 25]: 0
- Plant response rating, Foxtail, Giant [19, 26]: 0
- Foxtail, Giant plant response rating [19, 27]: 20
- Foxtail, Giant plant response rating [19, 28]: 35
- Barnyardgrass plant response rating [20, 25]: 0
- Plant response rating, Barnyardgrass [20, 26]: 25
- Barnyardgrass plant response rating [20, 27]: 35
- Barnyardgrass plant response rating [20, 28]: 70
- Pigweed plant response rating [21, 25]: 0
- Plant response rating, Pigweed [21, 26]: 0
- Pigweed plant response rating [21, 27]: 0
- Pigweed plant response rating [21, 28]: 0
- Morningglory plant response rating [22, 25]: 0
- Plant response rating, Morningglory [22, 26]: 0
- Morningglory plant response rating [22, 27]: 0
- Morningglory plant response rating [22, 28]: 10
- Velvetleaf plant response rating [23, 25]: 0
- Plant response rating, Velvetleaf [23, 26]: 0
- Velvetleaf plant response rating [23, 27]: 0
- Velvetleaf plant response rating [23, 28]: 0

SMILES: CCNC(=O)c1cccc(NC(=O)c2cn(CC)nc2C(F)(F)F)c1 [Compound 172]
- Crabgrass, Large plant response rating [18, 25]: 0
- Plant response rating, Crabgrass, Large [18, 26]: 0
- Crabgrass, Large plant response rating [18, 28]: 0
- Crabgrass, Large plant response rating [18, 29]: 0
- Foxtail, Giant plant response rating [19, 25]: 0
- Plant response rating, Foxtail, Giant [19, 26]: 0
- Foxtail, Giant plant response rating [19, 28]: 0
- Foxtail, Giant plant response rating [19, 29]: 0
- Barnyardgrass plant response rating [20, 25]: 0
- Plant response rating, Barnyardgrass [20, 26]: 0
- Barnyardgrass plant response rating [20, 28]: 0
- Barnyardgrass plant response rating [20, 29]: 0
- Pigweed plant response rating [21, 25]: 25
- Plant response rating, Pigweed [21, 26]: 60
- Pigweed plant response rating [21, 28]: 40
- Pigweed plant response rating [21, 29]: 0
- Morningglory plant response rating [22, 25]: 10
- Plant response rating, Morningglory [22, 26]: 10
- Morningglory plant response rating [22, 28]: 0
- Morningglory plant response rating [22, 29]: 0
- Velvetleaf plant response rating [23, 25]: 5
- Plant response rating, Velvetleaf [23, 26]: 15
- Velvetleaf plant response rating [23, 28]: 0
- Velvetleaf plant response rating [23, 29]: 0

SMILES: CCOC(=O)c1ccc(F)c(NC(=O)c2nc(C(C)(C)C)nn2CC)c1 [Compound 451]
- Crabgrass, Large plant response rating [18, 30]: 10
- Crabgrass, Large plant response rating [18, 25]: 30
- Crabgrass, Large plant response rating [18, 31]: 5
- Crabgrass, Large plant response rating [18, 29]: 25
- Foxtail, Giant plant response rating [19, 30]: 10
- Foxtail, Giant plant response rating [19, 25]: 20
- Foxtail, Giant plant response rating [19, 31]: 5
- Foxtail, Giant plant response rating [19, 29]: 45
- Barnyardgrass plant response rating [20, 30]: 10
- Barnyardgrass plant response rating [20, 25]: 20
- Barnyardgrass plant response rating [20, 31]: 15
- Barnyardgrass plant response rating [20, 29]: 55
- Pigweed plant response rating [21, 30]: 10
- Pigweed plant response rating [21, 25]: 50
- Pigweed plant response rating [21, 31]: 0
- Pigweed plant response rating [21, 29]: 0
- Morningglory plant response rating [22, 30]: 20
- Morningglory plant response rating [22, 25]: 20
- Morningglory plant response rating [22, 31]: 0
- Morningglory plant response rating [22, 29]: 5
- Velvetleaf plant response rating [23, 30]: 20
- Velvetleaf plant response rating [23, 25]: 30
- Velvetleaf plant response rating [23, 31]: 0
- Velvetleaf plant response rating [23, 29]: 20

SMILES: CCNC(=O)c1ccnc(NC(=O)c2cn(C(C)(C)C)nc2CC)c1 [Compound 452]
- Crabgrass, Large plant response rating [18, 30]: 10
- Crabgrass, Large plant response rating [18, 25]: 20
- Crabgrass, Large plant response rating [18, 31]: 20
- Crabgrass, Large plant response rating [18, 29]: 45
- Foxtail, Giant plant response rating [19, 30]: 10
- Foxtail, Giant plant response rating [19, 25]: 25
- Foxtail, Giant plant response rating [19, 31]: 5
- Foxtail, Giant plant response rating [19, 29]: 45
- Barnyardgrass plant response rating [20, 30]: 10
- Barnyardgrass plant response rating [20, 25]: 35
- Barnyardgrass plant response rating [20, 31]: 15
- Barnyardgrass plant response rating [20, 29]: 70
- Pigweed plant response rating [21, 30]: 20
- Pigweed plant response rating [21, 25]: 70
- Pigweed plant response rating [21, 31]: 10
- Pigweed plant response rating [21, 29]: 65
- Morningglory plant response rating [22, 30]: 20
- Morningglory plant response rating [22, 25]: 30
- Morningglory plant response rating [22, 31]: 0
- Morningglory plant response rating [22, 29]: 10
- Velvetleaf plant response rating [23, 30]: 20
- Velvetleaf plant response rating [23, 25]: 30
- Velvetleaf plant response rating [23, 31]: 0
- Velvetleaf plant response rating [23, 29]: 5
